These are literature values, as cited in patent US20230111190A1, “ORAL COMPOSITIONS WITH IMPROVED BIOAVAILABILITY AND METHODS OF MAKING THE SAME” (Nulixir Inc., priority 2021, published 2023).

System in one data set: not given
To be noted: n-octanol and water; categorization at pH = 7 unless stated otherwise.
In general, logP refers to the decadic logarithm of the partition coefficient of the neutral form, usually between octanol and water. For the compound `COc1cc2c(c(OC)c1OC)-c1c(cc3c(c1OC)OCO3)CC(C)C(C)C2` (single isomer, unassigned; (-)) [(-)-schisandrin B], the logP is about 4. On to `COc1cc(/C=C/c2ccccc2)oc(=O)c1` [5,6-dehydrokawain], for which the log partition coefficient (logP) is given as about 2.9. For the compound `COC1=CC(=O)OC(/C=C/c2ccc(OC)cc2)C1` (centres unmarked) [5,6-dihydroyangonin], the lipophilicity (logP) is recorded as about 2.5.

On to `N[C@@H](Cc1c[nH]c2ccc(O)cc12)C(=O)O` [5-HTP, 5-hydroxytryptophan], for which the logP is about -2. As to `CC1=C(CO)C(=O)O[C@@H]([C@@H](C)[C@H]2CC[C@H]3[C@@H]4C[C@H](Cl)[C@]5(O)[C@@H](O)C=CC(=O)[C@]5(C)[C@H]4CC[C@]23C)C1` [6a-chloro-5b-hydroxywithaferin A], the logP is recorded as about 3.2.

As for `COC1=CC(=O)O[C@@H](CCc2ccc3c(c2)OCO3)C1` [7,8-dihydromethysticin], the logP was about 2.2. As for `COc1ccc(CCc2cc(OC)cc(=O)o2)cc1` [7,8-dihydroyangonin], the logP is recorded as about 2.9.

In the case of `COc1cc(/C=C\c2ccc(OC)c(O)c2)oc(=O)c1` [11-hydroxyyangonin], the logP is about 2.2.

As for `COc1cc2c(c(OC)c1OC)-c1c(cc(OC)c(OC)c1OC)C[C@](C)(O)[C@@H](C)C2` [(+)-schisandrin], the logP is about 5. Take `COc1cc2c(c(OC)c1OC)-c1c(cc(OC)c(OC)c1OC)C[C@H](C)[C@H](C)C2` [(-)-schisandrin A]: the logP was about 3.6.

Take `O=C(/C=C/c1ccccc1)N1CCCC1` [(E)-1-cinnamoylpyrrolidine]: the logP is on record as about 2.2. With `NCCCC(=O)O` [GABA, gamma-aminobutyric acid], the logP is reported as about -3. With `N[C@@H](Cc1ccccc1)C(=O)O` [L-phenylalanine], the logP is about -1.38. For the compound `CCNC(=O)CC[C@H](N)C(=O)O` [L-theanine], the logP is on record as about -3. Regarding `O=C(O)c1cc(C(=O)O)c2c(n1)C(=O)C(=O)c1cc(C(=O)O)[nH]c1-2` [PQQ, pyrroloquinoline quinone], the logP was about 0.4.

For the compound `CC(/C=C/C=C(\C)C(=O)O[C@@H]1O[C@H](CO[C@@H]2O[C@H](CO)[C@@H](O)[C@H](O)[C@H]2O)[C@@H](O)[C@H](O)[C@H]1O)=C\C=C\C=C(C)\C=C\C=C(/C)C(=O)O[C@@H]1O[C@H](CO[C@@H]2O[C@H](CO)[C@@H](O)[C@H](O)[C@H]2O)[C@@H](O)[C@H](O)[C@H]1O` [alpha-crocin], the logP was about -1.5. As for `CC(C)=C[C@@H]1CO[C@]23C[C@]4(CO2)[C@H](CC[C@@H]2[C@@]5(C)CC[C@H](O[C@@H]6OC[C@H](O)[C@H](O[C@@H]7O[C@H](CO)[C@@H](O)[C@H](O)[C@H]7O)[C@H]6O[C@@H]6O[C@@H](CO)[C@H](O)[C@H]6O)C(C)(C)[C@@H]5CC[C@]24C)[C@H]3[C@@]1(C)O` [bacopasaponin C], the logP is on record as about 2.

Take `CC(C)=C[C@H]1C[C@](C)(O)[C@@H]2[C@H]3CC[C@@H]4[C@@]5(C)CC[C@H](O[C@@H]6OC[C@H](O)[C@H](O[C@@H]7O[C@H](CO)[C@@H](O)[C@H](O)[C@H]7O)[C@H]6O[C@@H]6O[C@@H](CO)[C@H](O)[C@H]6O)C(C)(C)[C@@H]5CC[C@@]4(C)[C@@]34CO[C@@]2(C4)O1` [bacopaside X]: the logP is about 2.2. As to `CC(C)=C[C@H]1C[C@](C)(O)[C@H]2[C@H]3CC[C@@H]4[C@@]5(C)CC[C@H](O[C@@H]6O[C@H](CO)[C@@H](O)[C@H](O[C@@H]7O[C@H](CO)[C@@H](O)[C@H](O)[C@H]7O)[C@H]6O[C@@H]6O[C@@H](CO)[C@H](O)[C@H]6O)C(C)(C)[C@@H]5CC[C@@]4(C)[C@@]34CO[C@@]2(C4)O1` [bacoside A3], the logP is reported as about 2.1.

As to `CC(C)=CCC[C@](C)(O[C@@H]1O[C@H](CO[C@@H]2O[C@H](CO)[C@@H](O)[C@H](O)[C@H]2O)[C@@H](O)[C@H](O)[C@H]1O)[C@H]1CC[C@]2(C)[C@@H]1[C@H](O)C[C@@H]1[C@@]3(C)CC[C@H](O[C@@H]4O[C@H](CO)[C@@H](O)[C@H](O)[C@H]4O[C@@H]4O[C@H](CO)[C@@H](O)[C@H](O)[C@H]4O)C(C)(C)[C@@H]3CC[C@]12C` [ginsenoside rb1], the logP is given as about -1. Turning to `CC(C)=CCC[C@](C)(O[C@@H]1O[C@H](CO)[C@@H](O)[C@H](O)[C@H]1O)[C@H]1CC[C@]2(C)[C@@H]1[C@H](O)C[C@@H]1[C@@]3(C)CC[C@H](O)C(C)(C)[C@@H]3[C@@H](O[C@@H]3O[C@H](CO)[C@@H](O)[C@H](O)[C@H]3O)C[C@]12C` [ginsenoside rg1], the logP is about 0.8.

As to `COc1cc(O)c2c(=O)c(OC)c(-c3ccc(O)cc3)oc2c1` [kumatakenin], the lipophilicity (logP) was about 2.5.

In the case of `COc1ccc(C23C=CC(O)CC2N(C)CC3)cc1OC` (centres unmarked) [mesembrenol], the logP is listed as about 2.4.

With `COc1ccc([C@@]23C=CC(=O)C[C@@H]2N(C)CC3)cc1OC` [mesembrenone], the logP was about 1.3.

On to `COc1ccc([C@@]23CCC(=O)C[C@@H]2N(C)CC3)cc1OC` [mesembrine], for which the logP is listed as about 1.5.

On to `COc1nc2c(c(=O)n1C)n(C)c(=O)n2C` [methylliberine], for which the logP was about -0.083. Turning to `CC(=O)OC1C=CC(=O)N(C(=O)CCc2ccccc2)C1` (centres unmarked) [pipermethystine], the logP is given as about 1.8. For the compound `COc1cc([C@H]2Oc3cc(O)c4c(=O)c(O)c(-c5ccc(O)cc5)oc4c3O[C@@H]2CO)ccc1O` [rhodiolin], the logP was about 2. On to `COc1cc2c(c(OC)c1OC)-c1c(cc(OC)c(OC)c1OC)C[C@](C)(O)[C@@H](C)C2` [schisandrol A], for which the logP was about 3.4.

`N#C[C@@]1(O[C@@H]2O[C@H](CO)[C@@H](O)[C@H](O)[C@H]2O)C=C[C@@H](O)C1` [tetraphyllin B]: the logP is about -2.5. In the case of `Cn1c(=O)c2c(n(C)c1=O)n(C)c(=O)n2C` [theacrine], the logP is about -1.06. Take `Cn1cnc2c1c(=O)[nH]c(=O)n2C` [theobromine]: the logP was about -0.78. As for `COc1ccc(/C=C/c2cc(OC)cc(=O)o2)cc1` [yangonin], the logP is listed as about 2.8. For the compound (-)-schisandrin C, the logP is recorded as about 3.5. Regarding (R)-kawain, the logP is given as about 2.7. On to bacopaside B, for which the logP was about 2.8. With hericerin, the logP is reported as about 6.4. herinacine A: the logP is about 2.5. Consider schisandroside C, for which the logP was about 1.6.

In the case of tortuosomine, the logP is given as about 3.

System in another data set: not given
To be noted: dependence on water content.
Regarding `COc1ccc2cc3[n+](cc2c1OC)CCc1cc2c(cc1-3)OCO2` [berberine], the solubility in ethanol result is reported as “decreases rapidly with water content”.

The next data set deals with many strains of fungi.
Details: not given
Regarding `O=CC=Cc1ccccc1` [Cinnamaldehyde], the antifungal inhibitory activity result was “strong inhibitory activity”.

System in another data set: not given
The conditions noted are these: one study estimated.
Regarding `COc1ccc2cc3[n+](cc2c1OC)CCc1cc2c(cc1-3)OCO2` [berberine], the “affected by first-pass digestion” value is given as 43%; the “bioavailability lost to hepatic metabolism” value is “minimal amount”; the “not absorbed and eliminated via feces” value was 56%.

System in a further data set: not given
To be noted: in vivo.
With `CCCCCCCC/C=C\CCCCCCCC(=O)O` [oleic acid], the “absorbed via the lymphatic system” value is 85% and the “absorbed via the portal vein” value is 15%.
